Measured values reported in patent US10457709B2, “Antimicrobial peptides, their variants and uses” (priority 2015, dated 2019).
Where two headings read alike, the source gives them in different places. Square brackets hold non-standard residues; d marks the D form. Peptide text beside a SMILES is read from it.

How the values were obtained:
[1] = system: Pseudomonas aeruginosa clinical strains; assay type: cell-based; details: microdilution, Muller Hinton broth-cation adjusted, 0.02% BSA, 0.2% acetic acid
In short: (§1)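 Broth microdilution in Mueller Hinton broth, inoculum adjusted to 5.0×10^5 cfu/ml, peptides tested at 0.125 to 128 μg/ml, 37° C for 20 to 24 hours. Yeast assays were run in potato dextrose broth. MIC was taken as the lowest concentration with no visible growth.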

[2] = system: Klebsiella pneumoniae clinical strains; assay type: cell-based; details: microdilution, Muller Hinton broth-cation adjusted, 0.02% BSA, 0.2% acetic acid
In short: as §1

[3] = system: Escherichia coli clinical strains; assay type: cell-based; details: microdilution, Muller Hinton broth-cation adjusted, 0.02% BSA, 0.2% acetic acid
In short: as §1

[4] = system: Enterobacter cloacae clinical strains; assay type: cell-based; parameters: Minimum inhibitory concentration: unit: μg/ml; details: microdilution, Muller Hinton broth-cation adjusted, 0.02% BSA, 0.2% acetic acid
In short: as §1

[5] = system: Staphylococcus aureus clinical strains; assay type: cell-based; parameters: Minimum inhibitory concentration: unit: μg/ml; details: microdilution, Muller Hinton broth-cation adjusted, 0.02% BSA, 0.2% acetic acid
In short: as §1

[6] = system: Proteus mirabilis clinical strains; assay type: cell-based; parameters: Minimum inhibitory concentration: unit: μg/ml; details: microdilution, Muller Hinton broth-cation adjusted, 0.02% BSA, 0.2% acetic acid
In short: as §1

[7] = system: Streptococcus pneumoniae clinical strains; assay type: cell-based; parameters: Minimum inhibitory concentration: unit: μg/ml; details: microdilution, Muller Hinton broth-cation adjusted, 0.02% BSA, 0.2% acetic acid
In short: as §1

[8] = system: Serratia marcescens clinical strains; assay type: cell-based; parameters: Minimum inhibitory concentration: unit: μg/ml; details: microdilution, Muller Hinton broth-cation adjusted, 0.02% BSA, 0.2% acetic acid
In short: as §1

[9] = system: C. glabrata clinical strains; test: MIC, clinical yeast strains; assay type: cell-based, Candida glabrata; parameters: unit: µg/ml
In short: as §1

[10] = system: C. quillermondiae clinical strains; test: MIC, clinical yeast strains; assay type: cell-based, Candida quillermondiae; parameters: unit: μg/ml; details: C. quillermondiae clinical yeast strain 1
In short: as §1

[11] = system: Candida albicans clinical strains; test: MIC, clinical yeast strains; assay type: cell-based; parameters: unit: μg/ml
In short: as §1

[12] = system: C. parapsilosis clinical strains; test: MIC, clinical yeast strains; assay type: cell-based, Candida parapsilosis; parameters: unit: µg/ml
In short: as §1

Structure (SMILES): CC(C)C[C@@H](NC(=O)[C@H](N)CCCNC(=N)N)C(=O)N[C@H](CCCCN)C(=O)N[C@H](Cc1c[nH]c2ccccc12)C(=O)N[C@H](Cc1ccccc1)C(=O)N[C@H](Cc1c[nH]c2ccccc12)C(=O)N[C@H](CC(C)C)C(=O)N[C@H](Cc1ccccc1)C(=O)N[C@H](CCCNC(=N)N)C(=O)N[C@H](CCCCN)C(=O)N[C@H](CCCNC(=N)N)C(=O)O [Chain307D] (H-[dR][dL][dK][dW][dF][dW][dL][dF][dR][dK][dR]-OH)
- Minimum inhibitory concentration ([1]; Pseudomonas aeruginosa clinical strain 1): 16
- Minimum inhibitory concentration ([1]; Pseudomonas aeruginosa clinical strain 2): 16
- Minimum inhibitory concentration ([1]; Pseudomonas aeruginosa clinical strain 3): 16
- Minimum inhibitory concentration ([1]; Pseudomonas aeruginosa clinical strain 4): 8
- Minimum inhibitory concentration ([1]; Pseudomonas aeruginosa clinical strain 5): 8
- Minimum inhibitory concentration ([2]; Klebsiella pneumoniae clinical strain 1): 8
- Minimum inhibitory concentration ([2]; Klebsiella pneumoniae clinical strain 2): 8
- Minimum inhibitory concentration ([2]; Klebsiella pneumoniae clinical strain 3): 16
- Minimum inhibitory concentration ([2]; Klebsiella pneumoniae clinical strain 4): 16
- Minimum inhibitory concentration ([2]; Klebsiella pneumoniae clinical strain 5): 4
- Minimum inhibitory concentration ([3]; Escherichia coli clinical strain 1): 4
- Minimum inhibitory concentration ([3]; Escherichia coli clinical strain 2): 4
- Minimum inhibitory concentration ([3]; Escherichia coli clinical strain 3): 4
- Minimum inhibitory concentration ([3]; Escherichia coli clinical strain 4): 2
- Minimum inhibitory concentration ([3]; Escherichia coli clinical strain 5): 4
- Minimum inhibitory concentration ([4]; Enterobacter cloacae clinical strain 1): 4
- Minimum inhibitory concentration ([4]; Enterobacter cloacae clinical strain 2): 8
- Minimum inhibitory concentration ([4]; Enterobacter cloacae clinical strain 3): 4
- Minimum inhibitory concentration ([4]; Enterobacter cloacae clinical strain 4): 4
- Minimum inhibitory concentration ([4]; Enterobacter cloacae clinical strain 5): 4
- Minimum inhibitory concentration ([5]; Staphylococcus aureus clinical strain 1): 2
- Minimum inhibitory concentration ([5]; Staphylococcus aureus clinical strain 2): 2
- Minimum inhibitory concentration ([5]; Staphylococcus aureus clinical strain 3): 2
- Minimum inhibitory concentration ([5]; Staphylococcus aureus clinical strain 4): 2
- Minimum inhibitory concentration ([5]; Staphylococcus aureus clinical strain 5): 2
- Minimum inhibitory concentration ([6]; Proteus mirabilis clinical strain 1): >128
- Minimum inhibitory concentration ([6]; Proteus mirabilis clinical strain 2): 128
- Minimum inhibitory concentration ([6]; Proteus mirabilis clinical strain 3): 128
- Minimum inhibitory concentration ([6]; Proteus mirabilis clinical strain 4): >128
- Minimum inhibitory concentration ([6]; Proteus mirabilis clinical strain 5): >128
- Minimum inhibitory concentration ([7]; Streptococcus pneumoniae clinical strain 1): 4
- Minimum inhibitory concentration ([7]; Streptococcus pneumoniae clinical strain 2): 4
- Minimum inhibitory concentration ([7]; Streptococcus pneumoniae clinical strain 3): 4
- Minimum inhibitory concentration ([7]; Streptococcus pneumoniae clinical strain 4): 2
- Minimum inhibitory concentration ([7]; Streptococcus pneumoniae clinical strain 5): 2
- Minimum inhibitory concentration ([8]; Serratia marcescens clinical strain 1): >128
- Minimum inhibitory concentration ([8]; Serratia marcescens clinical strain 2): >128
- Minimum inhibitory concentration ([8]; Serratia marcescens clinical strain 3): 128
- Minimum inhibitory concentration ([8]; Serratia marcescens clinical strain 4): >128
- Minimum inhibitory concentration ([8]; Serratia marcescens clinical strain 5): >128
- Minimum inhibitory concentration ([9]; C. glabrata clinical yeast strain 1): 8
- Minimum inhibitory concentration ([9]; C. glabrata clinical yeast strain 2): 16
- Minimum inhibitory concentration ([9]; C. glabrata clinical yeast strain 3): 8
- Minimum inhibitory concentration ([9]; C. glabrata clinical yeast strain 4): 16
- Minimum inhibitory concentration [10]: 4
- Minimum inhibitory concentration ([11]; Candida albicans clinical yeast strain 1): 16
- Minimum inhibitory concentration ([11]; Candida albicans clinical yeast strain 2): 16
- Minimum inhibitory concentration ([11]; Candida albicans clinical yeast strain 3): 16
- Minimum inhibitory concentration ([11]; Candida albicans clinical yeast strain 4): 16
- Minimum inhibitory concentration ([11]; Candida albicans clinical yeast strain 5): 16
- Minimum inhibitory concentration ([12]; C. parapsilosis clinical yeast strain 1): 16
- Minimum inhibitory concentration ([12]; C. parapsilosis clinical yeast strain 2): 8
- Minimum inhibitory concentration ([12]; C. parapsilosis clinical yeast strain 3): 8
- Minimum inhibitory concentration ([12]; C. parapsilosis clinical yeast strain 4): 8
